The subject of assay [1] is CXMDJ. The experiment in a line: Urine Tetranor-PGDM concentration in muscular dystrophy dog CXMDJ (HPLC-MS/MS). It is filed as in vivo. An excerpt: Muscular dystrophy dog: CXMDJ (CXMDJ; available from National Center of Neurology and Psychiatry)
CXMDJ was orally administered with a solvent (0.5% methylcellulose solution) or test compound 2 for about 1 year, followed by the administration of test compound 2 for the solvent-administrated dog, and the solvent for the test compound 2-administered dog. Urine was collected before switching from the solvent to test compound 2, and from test compound 2 to the solvent. Urine was collected over time after the administered solution was switched. For comparison, urine was also collected from normal beagles used as a control.
The urine (200 μL) collected from the mice or dogs was mixed with 5 ng of deuterium-labeled Tetranor-PGDM-d6 (Cayman Chemical) used as internal standard. The volume was adjusted to 2 mL with purified water, and pH was adjusted to 3. The urine was then injected to a Sep-Pak Vac C18 cartridge (Waters) equilibrated with acetonitrile (5 mL) and purified water (5 mL). The sample was washed with a 10% acetonitrile solution (5 mL) prepared using purified water, and with hexane (10 mL), and eluted with ethyl acetate (5 mL) before being dried under a stream of nitrogen. The residue was dissolved in a 10% acetonitrile solution (100 μL) prepared using purified water, and used as a measurement sample.
The pretreated urine sample was used for the measurement of Tetranor-PGDM levels. […] MRM (Multiple Reaction Monitoring) was used for quantification. In this technique, only the true parent ions are specifically selected from the mass of the parent ions (precursor ion) and of the fragment ions resulting from CID (collision-induced dissociation), and the parent ions are accurately quantified from the area of the selected ions. […] The fragment ions are then isolated in a second mass analyzer (Q3), and detected at the detector provided downstream. Tetranor-PGDM (mass number 328) was detected by using any of the ions with a m/z (mass number charge) of 155, 143, and 109 produced by further decomposing the product ions with a m/z of 327 by CID (collision-induced dissociation). The internal standard Tetranor-PGDM-d6 (mass number 334) was detected by using any of the product ions with a m/z (mass number÷charge) of 161, 149, and 109 produced by further decomposing the product ions with a m/z of 333 by CID (collision-induced dissociation). […] Area calculations were performed for the peaks originating from the Tetranor-PGDM in the resulting mass chromatogram, and each peak was quantified from the standard curve created from the standard sample. In the quantification, correction was made by using the area value of the peak originating from the Tetranor-PGDM-d6 introduced as the internal standard for the correction of the extraction efficiency and ionization efficiency in each analysis.

Assay [2] concerns CXMDJ. The experiment in a line: Symptom scores of muscular dystrophy dog CXMDJ. The assay is classed as in vivo.
For assay [3], the system named is mdx mice. The experiment in a line: Forefoot grip strength of mdx mice (symptom evaluation). The assay is classed as in vivo, mouse. As to conditions: 4 weeks old, oral, 30 mg/kg for 5 days, solvent group showed no significant change (FIG. 1, right). How it is done: (§1) Muscular dystrophy mouse: mdx (C57Bl/10 ScSn; available from JAX Laboratories)
A solvent (0.5% methylcellulose solution) or test compound 1 was orally administered to mdx mice, 4 weeks old, for 5 days at a dose of 30 mg/kg. Using a metabolism cage for mice, urine was collected over the course of about 12 hours before the administration of test compound 1 and 5 days after the administration. For comparison, urine was also collected from wild-type mice of the same weeks old and the same lineage used as a control. The creatinine concentration in urine was measured using a measurement kit (L-type Wako CRE M, Wako Pure Chemical Industries, Ltd.).
For the symptom evaluation of the mdx mice, the forefoot grip strength was measured using a grip dynamometer for mice (traction meter; BrainSienceldea). Each measurement was made in 2 min, and the mean value of five trials was calculated.

The subject of assay [4] is mdx mice. The experiment in a line: Urine Tetranor-PGDM concentration in mdx mice (HPLC-MS/MS). It is filed as in vivo, mouse. The settings on record: oral, 30 mg/kg for 5 days (FIG. 1, left). Here is the method:
as §1
A solvent (0.5% methylcellulose solution) or test compound 1 was orally administered to mdx mice, 4 weeks old, for 5 days at a dose of 30 mg/kg. Using a metabolism cage for mice, urine was collected over the course of about 12 hours before the administration of test compound 1 and 5 days after the administration. For comparison, urine was also collected from wild-type mice of the same weeks old and the same lineage used as a control. The creatinine concentration in urine was measured using a measurement kit (L-type Wako CRE M, Wako Pure Chemical Industries, Ltd.). […]
The pretreated urine sample was used for the measurement of Tetranor-PGDM levels. […] MRM (Multiple Reaction Monitoring) was used for quantification. In this technique, only the true parent ions are specifically selected from the mass of the parent ions (precursor ion) and of the fragment ions resulting from CID (collision-induced dissociation), and the parent ions are accurately quantified from the area of the selected ions. […] The fragment ions are then isolated in a second mass analyzer (Q3), and detected at the detector provided downstream. […] Area calculations were performed for the peaks originating from the Tetranor-PGDM in the resulting mass chromatogram, and each peak was quantified from the standard curve created from the standard sample. […]

Where [5] appears, read: CXMDJ switched to solvent after about 1 year of oral test compound 2 (FIG. 2, left).
Setting [6] is: CXMDJ switched to the inhibitor after about 1 year of oral solvent (FIG. 2, right).

With `CON(C)C(=O)c1[nH]c(C)c(-c2nc3ccc(C(=O)c4ccccc4)cc3[nH]2)c1C` [Test compound 2], the “Tetranor-PGDM concentration in urine” value with CXMDJ [1] (CXMDJ dog orally administered with test compound 2, compared with CXMDJ dog (Table 1)) is on record as “decreased”. The figures for the “urine Tetranor-PGDM concentration” value in the assay on CXMDJ [1] (setting [5]) and in the assay on CXMDJ [1] (setting [6]) were “increased” and “decreased”, respectively. The molecule also showed a Tetranor-PGDM concentration in the assay with CXMDJ [1] (urine of HPGDS inhibitor-administered CXMDJ dog (CXMDJ dog without inhibitor 27.8)) of 17.9 ng/mL. For the same molecule, the values for the symptom scores result in the assay on CXMDJ [2] (setting [5]) and in the assay on CXMDJ [2] (setting [6]) were “worsened” and “improved”, respectively.

For `c1ccc(C(OC2CCN(CCCc3nnn[nH]3)CC2)c2ccccc2)cc1` [Test compound 1, 4-benzhydryloxy-1-{3-(1H-tetrazol-5-yl)-propyl}piperidine], the forefoot grip strength entry in the assay with mdx mice [3] is recorded as “significantly increased”. Moreover, in the assay on mdx mice [4], the “Tetranor-PGDM concentration in urine” value is on record as “significantly lower”.
